Test results published in ChEMBL document CHEMBL4304800, “C4-Phenylthio β-lactams: Effect of the chirality of the β-lactam ring on antimicrobial activity” (2019).
Values after ≈ are worked out from the molar mass of the structure shown.

What was measured:
Type in all cases: functional
[1] = tested on: Mycobacterium tuberculosis; assay: Antitubercular activity against serine beta-lactamase producing Mycobacterium tuberculosis H37Rv after 14 days in presence of GAST/Fe medium by eleven fold serial dilution method; conditions: 336 h
[2] = tested on: Moraxella catarrhalis; assay: Bactericidal activity against serine beta-lactamase producing Moraxella catarrhalis incubated in MH broth for 24 to 48 hrs by microbroth dilution method
[3] = tested on: Mycobacterium tuberculosis; assay: Antitubercular activity against serine beta-lactamase producing Mycobacterium tuberculosis H37Rv after 14 days in presence of middlebrook 7H9/BSA medium by eleven fold serial dilution method; conditions: 336 h

Compound	MIC99 [1]	MBC [2]	MIC [2]	MIC99 [3]
O=C1CC(Sc2ccc(F)c(Cl)c2)N1 (racemic)	0.7 µg/mL	–	–	–
COc1ccc(S[C@H]2CC(=O)N2C(=O)N[C@H](C)c2ccccc2)cc1	25 µg/mL	50 µg/mL (≈ 140 µM)	50 µg/mL (≈ 140 µM)	100 µg/mL
COc1ccccc1S[C@H]1CC(=O)N1C(=O)N[C@@H](C)c1ccccc1	6.2 µg/mL	50 µg/mL (≈ 140 µM)	50 µg/mL (≈ 140 µM)	25 µg/mL
COc1ccccc1SC1CC(=O)N1 (racemic)	–	–	–	> 250 µg/mL
C[C@@H](NC(=O)N1C(=O)C[C@H]1Sc1ccc(C(F)(F)F)cc1)c1ccccc1	–	200 µg/mL (≈ 507 µM)	200 µg/mL (≈ 507 µM)	100 µg/mL
C[C@H](NC(=O)N1C(=O)C[C@@H]1Sc1ccccc1F)c1ccccc1	6.2 µg/mL	200 µg/mL (≈ 581 µM)	25 µg/mL (≈ 72.6 µM)	25 µg/mL
O=C1CC(Sc2ccccc2F)N1C(=O)NCc1ccccc1 (racemic)	–	–	–	25 µg/mL
C[C@@H](NC(=O)N1C(=O)C[C@H]1Sc1ccc(F)cc1)c1ccccc1	25 µg/mL	25 µg/mL (≈ 72.6 µM)	25 µg/mL (≈ 72.6 µM)	50 µg/mL
C[C@H](NC(=O)N1C(=O)C[C@H]1Sc1ccc(C(F)(F)F)cc1)c1ccccc1	–	200 µg/mL (≈ 507 µM)	200 µg/mL (≈ 507 µM)	100 µg/mL
C[C@H](NC(=O)N1C(=O)C[C@@H]1Sc1ccc(F)cc1)c1ccccc1	12.5 µg/mL	50 µg/mL (≈ 145 µM)	25 µg/mL (≈ 72.6 µM)	50 µg/mL
O=C1CC(Sc2ccc(C(F)(F)F)cc2)N1 (racemic)	–	–	–	25 µg/mL
O=C1CC(Sc2ccc(F)cc2F)N1 (racemic)	–	3.1 µg/mL (≈ 14.4 µM)	–	3.1 µg/mL
C[C@@H](NC(=O)N1C(=O)C[C@@H]1Sc1ccc(C(F)(F)F)cc1)c1ccccc1	–	200 µg/mL (≈ 507 µM)	200 µg/mL (≈ 507 µM)	100 µg/mL
C[C@@H](NC(=O)N1C(=O)C[C@@H]1Sc1ccc(F)cc1Cl)c1ccccc1	0.7 µg/mL	25 µg/mL (≈ 66 µM)	25 µg/mL (≈ 66 µM)	25 µg/mL
COc1ccccc1S[C@H]1CC(=O)N1C(=O)N[C@H](C)c1ccccc1	25 µg/mL	50 µg/mL (≈ 140 µM)	50 µg/mL (≈ 140 µM)	50 µg/mL
O=C1CC(Sc2ccc(F)cc2F)N1C(=O)NCc1ccccc1 (racemic)	–	1.6 µg/mL (≈ 4.59 µM)	1.6 µg/mL (≈ 4.59 µM)	100 µg/mL
C[C@H](NC(=O)N1C(=O)C[C@@H]1Sc1ccc(F)c(Cl)c1)c1ccccc1	1.5 µg/mL	25 µg/mL (≈ 66 µM)	25 µg/mL (≈ 66 µM)	25 µg/mL
O=C1CC(Sc2ccc(F)cc2Cl)N1 (racemic)	–	–	–	25 µg/mL
C[C@H](NC(=O)N1C(=O)C[C@H]1Sc1ccc(F)cc1Cl)c1ccccc1	1.5 µg/mL	200 µg/mL (≈ 528 µM)	200 µg/mL (≈ 528 µM)	37.5 µg/mL
C[C@@H](NC(=O)N1C(=O)C[C@@H]1Sc1ccccc1F)c1ccccc1	12.5 µg/mL	50 µg/mL (≈ 145 µM)	25 µg/mL (≈ 72.6 µM)	25 µg/mL
O=C1CC(Sc2ccccc2F)N1 (racemic)	–	–	–	100 µg/mL
COc1ccccc1S[C@@H]1CC(=O)N1C(=O)N[C@@H](C)c1ccccc1	25 µg/mL	100 µg/mL (≈ 281 µM)	100 µg/mL (≈ 281 µM)	100 µg/mL
C[C@H](NC(=O)N1C(=O)C[C@H]1Sc1ccc(F)c(Cl)c1)c1ccccc1	1.5 µg/mL	200 µg/mL (≈ 528 µM)	200 µg/mL (≈ 528 µM)	25 µg/mL
C[C@H](NC(=O)N1C(=O)C[C@@H]1Sc1c(F)c(F)c(F)c(F)c1F)c1ccccc1	0.7 µg/mL	6.2 µg/mL (≈ 14.9 µM)	6.2 µg/mL (≈ 14.9 µM)	100 µg/mL
O=C1CC([Se]c2ccccc2)N1C(=O)NCc1ccccc1 (racemic)	–	12.5 µg/mL (≈ 34.8 µM)	12.5 µg/mL (≈ 34.8 µM)	25 µg/mL
C[C@H](NC(=O)N1C(=O)C[C@@H]1Sc1ccc(F)cc1Cl)c1ccccc1	1.5 µg/mL	50 µg/mL (≈ 132 µM)	50 µg/mL (≈ 132 µM)	25 µg/mL

Compound	MIC99 [1]	MBC [2]	MIC [2]	MIC99 [3]
CC[C@H]1OC(=O)[C@H](C)[C@@H](O[C@H]2C[C@@](C)(OC)[C@@H](O)[C@H](C)O2)[C@H](C)[C@@H](O[C@@H]2O[C@H](C)C[C@H](N(C)C)[C@H]2O)[C@](C)(O)C[C@@H](C)CN(C)[C@H](C)[C@@H](O)[C@]1(C)O [AZITHROMYCIN]	–	0.063 µg/mL (≈ 0.0841 µM)	0.125 µg/mL (≈ 0.167 µM)	–
C[C@@H](NC(=O)N1C(=O)C[C@@H]1Sc1ccc(F)cc1)c1ccccc1	12.5 µg/mL	25 µg/mL (≈ 72.6 µM)	25 µg/mL (≈ 72.6 µM)	50 µg/mL
O=C1CC(Sc2ccc(F)cc2)N1C(=O)NCc1ccccc1 (racemic)	–	–	–	6.2 µg/mL
C[C@@H](NC(=O)N1C(=O)C[C@@H]1[Se]c1ccccc1)c1ccccc1	12.5 µg/mL	50 µg/mL (≈ 134 µM)	25 µg/mL (≈ 67 µM)	25 µg/mL
O=C1CC([Se]c2ccccc2)N1 (racemic)	–	6.2 µg/mL (≈ 27.4 µM)	6.2 µg/mL (≈ 27.4 µM)	25 µg/mL
C[C@H](NC(=O)N1C(=O)C[C@@H]1Sc1ccc(F)cc1F)c1ccccc1	0.7 µg/mL	12.5 µg/mL (≈ 34.5 µM)	12.5 µg/mL (≈ 34.5 µM)	12.5 µg/mL
O=C1CC(Sc2ccc(F)cc2)N1 (racemic)	–	–	–	> 100 µg/mL
COc1ccc(S[C@@H]2CC(=O)N2C(=O)N[C@H](C)c2ccccc2)cc1	25 µg/mL	50 µg/mL (≈ 140 µM)	50 µg/mL (≈ 140 µM)	100 µg/mL
O=C1CC(Sc2ccc(F)c(F)c2)N1C(=O)NCc1ccccc1 (racemic)	–	–	–	6.2 µg/mL
COc1ccc(S[C@@H]2CC(=O)N2C(=O)N[C@@H](C)c2ccccc2)cc1	25 µg/mL	50 µg/mL (≈ 140 µM)	50 µg/mL (≈ 140 µM)	50 µg/mL
C[C@@H](NC(=O)N1C(=O)C[C@H]1Sc1ccccc1F)c1ccccc1	12.5 µg/mL	25 µg/mL (≈ 72.6 µM)	12.5 µg/mL (≈ 36.3 µM)	25 µg/mL
C[C@@H](NC(=O)N1C(=O)C[C@@H]1Sc1ccc(F)c(F)c1)c1ccccc1	0.7 µg/mL	25 µg/mL (≈ 69 µM)	25 µg/mL (≈ 69 µM)	> 100 µg/mL
O=C1CC(Sc2c(F)c(F)c(F)c(F)c2F)N1 (racemic)	–	–	–	> 100 µg/mL
C[C@H](NC(=O)N1C(=O)C[C@H]1[Se]c1ccccc1)c1ccccc1	6.2 µg/mL	50 µg/mL (≈ 134 µM)	25 µg/mL (≈ 67 µM)	25 µg/mL
COc1ccc(SC2CC(=O)N2)cc1 (racemic)	–	200 µg/mL (≈ 956 µM)	> 200 µg/mL	100 µg/mL
C[C@@H](NC(=O)N1C(=O)C[C@H]1Sc1ccc(F)c(F)c1)c1ccccc1	0.7 µg/mL	12.5 µg/mL (≈ 34.5 µM)	12.5 µg/mL (≈ 34.5 µM)	≥ 100 µg/mL
C[C@H](NC(=O)N1C(=O)C[C@H]1Sc1ccc(F)cc1)c1ccccc1	12.5 µg/mL	50 µg/mL (≈ 145 µM)	50 µg/mL (≈ 145 µM)	50 µg/mL
C[C@@H](NC(=O)N1C(=O)C[C@H]1Sc1ccc(F)cc1Cl)c1ccccc1	1.5 µg/mL	25 µg/mL (≈ 66 µM)	25 µg/mL (≈ 66 µM)	50 µg/mL
COc1ccccc1S[C@@H]1CC(=O)N1C(=O)N[C@H](C)c1ccccc1	25 µg/mL	–	> 200 µg/mL	> 100 µg/mL
C[C@H](NC(=O)N1C(=O)C[C@@H]1[Se]c1ccccc1)c1ccccc1	6.2 µg/mL	50 µg/mL (≈ 134 µM)	25 µg/mL (≈ 67 µM)	25 µg/mL
COc1ccc(S[C@H]2CC(=O)N2C(=O)N[C@@H](C)c2ccccc2)cc1	25 µg/mL	50 µg/mL (≈ 140 µM)	50 µg/mL (≈ 140 µM)	> 50 µg/mL
C[C@@H](NC(=O)N1C(=O)C[C@H]1Sc1ccc(F)c(Cl)c1)c1ccccc1	1.5 µg/mL	25 µg/mL (≈ 66 µM)	25 µg/mL (≈ 66 µM)	25 µg/mL
C[C@@H](NC(=O)N1C(=O)C[C@H]1[Se]c1ccccc1)c1ccccc1	12.5 µg/mL	50 µg/mL (≈ 134 µM)	25 µg/mL (≈ 67 µM)	25 µg/mL
COc1ccccc1SC1CC(=O)N1C(=O)NCc1ccccc1 (racemic)	–	–	–	188 µg/mL
O=C1CC(Sc2ccc(F)c(Cl)c2)N1C(=O)NCc1ccccc1 (racemic)	–	6.2 µg/mL (≈ 17 µM)	6.2 µg/mL (≈ 17 µM)	–
COc1ccc(SC2CC(=O)N2C(=O)NCc2ccccc2)cc1 (racemic)	–	–	–	125 µg/mL
